Measurements reported in US10709724B2, “Methods of treating mitochondrial dysfunction” (Ecole Polytechnique Federale de Lausanne (EPFL), priority 2011, dated 2020).

Columns and labels:
HEK293T cells = test: Mitochondrial NAD+ in HEK293T cells; type: cell-based, human; details: 0.5 mM, 4 hrs
Procedure: NAD^+ NAM Determination. NAD^+ levels in cultured cells were determined using a commercial kit (Enzychrom™, BioAssays Systems, CA). For tissue samples NAD^+ and NAM levels were determined as described in (Sauve et al., 2005). In brief, to a weighed aliquot of frozen pulverized tissue we added as standards, ^18O-NAD^+ (typically 2.00 nmol) and ^18O-NAM (typically 2.00 nmol). 70 L of ice-cold 7% perchloric acid was then added and the sample was vortexed and sonicated three times, then centrifuged. Clear supernatant was removed and neutralized by additions of 3 M NaOH and 1 M phosphate buffer (pH=9), then centrifuged. Clear supernatant was injected onto HPLC C-18 column with 20 mM ammonium acetate eluent to separate NAD^+ and NAM from other cellular components, NAD^+ and NAM peaks (260 nm absorbance) were collected. Collections were lyophilized to dryness and subjected to MALDI-TOF analysis. For NAD^+ measurement, ratio of intensities for m/z=664 and 666 peaks, corresponding to ^16O- and ^18O-NAD^+ isotopomers, was multiplied by 2.00 nmol and then divided by tissue weight to determine NAD+ concentration in the sample. […] Other NAD metabolites were determined as previously described (Yang and Sauve, Synthesis of nictotinamide riboside and derivatives: effective agents for increasing nictinomide adenine dinucleotide concentrations in mammalian cells. J Med Chem 50, 6458-6461 (2006)).

SIRT1 = SIRT1 activity (FOXO1 acetylation, target genes) in NR-treated HEK293T cells; type: cell-based, human
Procedure: mRNA and mtDNA Analysis. Total RNA was prepared using TRIzol (Invitrogen) according to the manufacturer's instructions. RNA was treated with DNase, and 2 μg of RNA was used for reverse transcription (RT). cDNA was purified on QIAquick PCR cleanup columns (Qiagen, Valencia, Calif., USA). 50× diluted cDNA was used for RT-quantitative PCR (RT-VCR) VCR) reactions (Bai et al., 2007). The RT-qPCR reactions were performed using the Light-Cycler system (Roche Applied Science) and a qPCR Supermix (Qiagen) with the primers for mice summarized in Table 1 and 4, and with the primers for worms summarized on Table 7. mtDNA quantification was performed as described (Lagouge et al., 2006) with the primers indicated in Table 2 and 5.
Immunoprecipitation, SDS-PAGE, Western Blotting. Cells were lysed in lysis buffer (50 mM Tris, […], EDTA 1 mM, NP40 1%, nicotinamide 5 mM, Na-butyrate 1 in M, protease inhibitors pH7.4). Proteins were separated by SDS-PAGE and transferred onto nitrocellulose membranes. The origin of the primary and secondary antibodies used can be found as supplemental experimental procedures. Reactions were developed by enhanced chemiluminescence (Amersham, Little Chalfont, UK), PGC-1α, FOXO1 and Ndufa9 acetylation levels were analyzed by immunoprecipitation from cellular or nuclear lysates of tissues with anti-PGC-1α (Millipore), anti-FOXO1 (Cell Signaling, Danvers, Mass., USA) and anti-Ndufa9 (Abcam) antibody followed by Western blot using an acetyl-lysine antibody (Cell Signaling) that was normalized to total PGC-1a/FOXO1/Ndufa9 levels (Lagouge et al., 2006; Rodgers et al., 2005). In HEK293T cells HA-tagged PGC-1α was overexpressed and was immunoprecipitated using an anti-HA. In C2C12 myotubes, FLAG-HA tagged PGC-1α was introduced through adenoviral delivery 2 days before treatments, then IP was performed using anti-FLAG antibody and samples were processed as described. All blots were quantified by densitometry using ImageJ software. Poly(ADP-Ribose) detection was performed as previously described with slight modifications (Bai et al., PARP-1 inhibition increases mitochondrial metabolism through SIRT1 activation. Cell Metab 13, 461-468. (2011)) Briefly, PAR was detected by using a monoclonal anti-PAR antibody (Alexis, Lausanne Switzerland) by Western blotting of total protein lysates, using either […] of total worm protein lysates, […] of liver protein lysate or 200 g of muscle total protein extracts. PGC-1 acetylation was determined using PGC-1 immunoprecipitates from 2 mg of protein extracts, as described in Canto et al. (Canto et al., AMPK regulates energy expenditure by modulating NAD+ metabolism and SIRT1 activity. Nature 458, 1056 (2009)).

GPR109A = target: T1, GPR109A (Homo sapiens, UniProt Q8TDS4); type: cell-based; details: GPR109A-expressing Chem-4 cells
T1 construct: host or cells: Chem-4 cells (Ready-to-Assay GPR109A Nicotinic Acid Receptor Cells)
T1 sequence (Q8TDS4 whole entry): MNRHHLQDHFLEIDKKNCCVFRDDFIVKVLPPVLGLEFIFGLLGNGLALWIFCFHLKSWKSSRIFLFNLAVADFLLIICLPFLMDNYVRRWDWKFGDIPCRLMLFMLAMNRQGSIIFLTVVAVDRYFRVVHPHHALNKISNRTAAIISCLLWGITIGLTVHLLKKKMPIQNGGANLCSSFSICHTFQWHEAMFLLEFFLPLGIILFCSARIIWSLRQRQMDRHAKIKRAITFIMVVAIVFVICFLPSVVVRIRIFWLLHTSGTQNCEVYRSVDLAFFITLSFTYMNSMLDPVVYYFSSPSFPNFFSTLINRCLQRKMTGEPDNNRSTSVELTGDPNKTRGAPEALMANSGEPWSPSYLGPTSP
Procedure: GPR109A—Calcium Mobilization Assay. Ready-to-Assai™ GRP109A Nicotinic Acid Receptor Cells were used to measure calcium mobilization as specified by the manufacturer (Millipore). Calcium flux was determined using excitation at 340 and 380 nm in a fluorescence spectrophotometer (Victor X4, Perkin Elmer) in a 180 seconds time course, adding the ligand at 60 seconds. Internal validation was made using 0.1% Triton X-100 for total fluorophore release and 10 mM EGTA to chelate free calcium. Similarly, GPR109A specificity was internally validated using control cells devoid of GRP109A overexpression. Liver triglyceride measurement Liver triglycerides were measured from 20 mg of liver tissue using a variation of the Folch method, as described in Bai et al. (Bai et al., PARP-2 regulates SIRT1 expression and whole-body energy expenditure. (2011). Cell Metab 13, 450-460.

For `NC(=O)c1ccc[n+]([C@@H]2O[C@H](CO)[C@@H](O)[C@H]2O)c1` [NR, nicotinamide riboside], the “mitochondrial NAD+ levels in cultured cells” value (HEK293T cells) was “mitochondrial NAD^+ levels were enhanced”, the “expression of FOXO1 target genes (Gadd45, Catalase, Sod1, Sod2)” value (SIRT1) was “higher expression of target genes” and the Sod2 expression (SIRT1; 0.5 mM, 24 hrs) was “higher expression of a FOXO1 target gene, Sod2”. For the same compound, the “Ucp2 mRNA levels” value (SIRT1; 0.5 mM, 24 hrs) was “decreased Ucp2 mRNA levels”, the “Ucp2 expression with Sirt1 knock-down” value (SIRT1; 0.5 mM, 24 hrs, SIRT1 siRNAs) was “knocking down Sirt1 prevented the action of NR on Ucp2 expression” and the “intracellular NAD+ content with SIRT1 knock-down” value (SIRT1; 0.5 mM, 24 hrs, SIRT1 siRNAs) was “did not compromise the ability of NR to increase intracellular NAD^+ content”. For the same compound, the “Sod2 expression with Foxo1 or Sirt1 knockdown” value (SIRT1; 0.5 mM, 24 hrs, siRNAs) was “prevented by the knockdown of either Foxo1 or Sirt1”, the SIRT1 protein levels (SIRT1; 24 hrs) was “lack of changes in SIRT1 protein levels” and the “acetylation of FOXO1” value (SIRT1; 24 hrs, SIRT1-dependent) was “dose-dependently decreased the acetylation of FOXO1”. The “GPR109A activation (calcium flux)” value (GPR109A) was “did not activate GPR109A”.
